The record followed here is US9120749B2, “Quinoline derivatives and MELK inhibitors containing the same” (ONCOTHERAPY SCIENCE, INC., priority 2010, dated 2015).

Like-named read-outs stand apart in the source and are kept apart here.

By IC50 is commonly meant the midpoint of a concentration-inhibition curve.

Assay [1] has as its system A549 cells. Kind of assay: Cell-based assay: anti-proliferative activity, Cell Counting Kit-8, 72 hours (A549). The settings on record: Homo sapiens, A549, 72 h, 72 hours. An outline of the steps: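 Cell Counting Kit-8 read-out of A549 growth after 72 hours of inhibitor exposure, cells plated in 96-well format. Values reported as IC50.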
A general note: Tetrazolium assays rely on reduction of a dye to a coloured formazan, in cell work by metabolically active cells.

For assay [2], the target named is MELK (Homo sapiens, UniProt Q14680). In words: Kinase assay: MELK activity, phosphorylation of FITC-labeled histone H3 peptide measured by IMAP fluorescence polarization. The class given is biochemical. The following applies: read-out: IC50 (μM) (kinase assay). Summed up:
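FP readout: FITC-histone H3 peptide phosphorylation, read 0.5 h (RT) after stopping with 3x volume of IMAP progressive binding solution. Final DMSO 1%.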

Assay [3] has as its system DU4475. Kind of assay: Cell-based assay: anti-proliferative activity, Cell Counting Kit-8, 72 hours (DU4475). The following applies: Homo sapiens, DU-4475, DU4475 cells.
In assay [4] the test system is T47D cells. In words: Cell-based assay: anti-proliferative activity, Cell Counting Kit-8, 72 hours (T47D). The following applies: Homo sapiens, T47D, 72 h. Summed up: (§1)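 Cellular growth is read by CCK-8 colorimetric kit 72 h after inhibitor addition to seeded cells, and IC50 values are derived from the resulting data; MELK protein levels in these lines are checked beforehand by immunoblotting whole crude lysate.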

The test system of assay [5] is HT-1197 cells. In words: Cell-based assay: anti-proliferative activity, Cell Counting Kit-8, 72 hours (HT-1197, negative control without MELK expression). The settings on record: Homo sapiens, HT1197, 72 h, HT1197 cells (negative control, no MELK expression), 72 hours. An outline of the steps: as §1
The mark [6] stands for this setting: 50 micro-M ATP, FITC-labeled histone H3 peptide substrate, IMAP fluorescence polarization.

Chain of MELK (Q14680 whole entry, looked up): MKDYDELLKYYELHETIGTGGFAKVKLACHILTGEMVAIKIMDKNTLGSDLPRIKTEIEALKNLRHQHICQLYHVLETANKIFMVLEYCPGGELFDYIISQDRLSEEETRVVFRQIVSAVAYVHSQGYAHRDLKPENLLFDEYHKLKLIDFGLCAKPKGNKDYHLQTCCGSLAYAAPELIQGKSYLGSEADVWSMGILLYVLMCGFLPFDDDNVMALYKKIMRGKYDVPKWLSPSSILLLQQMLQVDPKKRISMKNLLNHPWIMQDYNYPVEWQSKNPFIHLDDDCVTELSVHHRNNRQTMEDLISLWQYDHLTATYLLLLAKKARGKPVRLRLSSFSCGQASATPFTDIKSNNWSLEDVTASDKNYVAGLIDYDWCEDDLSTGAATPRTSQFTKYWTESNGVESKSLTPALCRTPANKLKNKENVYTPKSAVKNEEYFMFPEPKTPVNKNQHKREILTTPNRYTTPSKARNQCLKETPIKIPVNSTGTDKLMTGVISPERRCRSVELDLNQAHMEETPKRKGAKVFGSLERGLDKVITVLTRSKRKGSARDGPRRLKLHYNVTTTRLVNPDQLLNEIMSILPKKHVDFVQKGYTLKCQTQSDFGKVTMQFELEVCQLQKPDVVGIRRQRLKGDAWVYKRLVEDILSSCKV

In the case of `COc1cc(-c2ccc3ncc(C(=O)C4CC4)c(Nc4ccc(CN5CCN(C)CC5)cc4)c3c2)cc(Cl)c1O` [Example 398, (6-(3-chloro-4-hydroxy-5-methoxyphenyl)-4-(4-((4-methylpiperazin-1-yl)methyl)phenylamino)quinolin-3-yl)(cyclopropyl)methanone], the IC50 in assay [1] was 0.38 µM; in assay [2] (setting [6]) it was 0.0084 µM; in assay [3], 0.73 µM; in assay [4] it was 0.78 µM; in assay [5] it was 4.7 µM.

As for `CN(C)CC1CCN(c2c([S+](C)[O-])cnc3ccc(-c4ccc(O)c(Cl)c4)cc23)CC1` (stereo not drawn) [Example 466], the concentration for half-maximal inhibition (IC50) in assay [1] amounted to 1.9 µM; in assay [2] (setting [6]), 0.016 µM; in assay [3] it was 1.1 µM; in assay [4], 0.67 µM; in assay [5] it was 6.7 µM.

`COc1cc(-c2ccc3ncc(C(=O)C4CC4)c(Nc4ccc(CN)cc4)c3c2)cc(Cl)c1O` [Example 506, (4-(4-(aminomethyl)phenylamino)-6-(3-chloro-4-hydroxy-5-methoxyphenyl)quinolin-3-yl)(cyclopropyl)methanone]: the IC50 in assay [1] was determined as 0.18 µM; in assay [2], 0.0032 µM; in assay [3] it was 0.13 µM; in assay [4], 0.15 µM; in assay [5], 0.74 µM.

On to `C[S+]([O-])c1cnc2ccc(-c3ccc(O)c(Cl)c3)cc2c1N[C@H]1CC[C@H](N)CC1` (stereo partly drawn) [Example 499], for which the concentration for half-maximal inhibition (IC50) in assay [1] was found to be 9.7 µM; in assay [2], 0.036 µM; in assay [3], 2.5 µM; in assay [4], 2.7 µM; in assay [5] it was 18 µM.

With `COc1cc(-c2ccc3ncc(C(C)=O)c(N4CCN(C(=O)CN(C)C)CC4)c3c2)cc(Cl)c1O` [Example 477, 1-(4-(3-acetyl-6-(3-chloro-4-hydroxy-5-methoxyphenyl)quinolin-4-yl)piperazin-1-yl)-2-(dimethylamino)ethanone], the IC50 turned out to be 0.36 µM in assay [1]; 0.0016 µM in assay [2]; 0.3 µM in assay [3]; 0.87 µM in assay [4]; 4.7 µM in assay [5].

As for `CN(C)CC1CCN(c2c([S+](C)[O-])cnc3ccc(-c4cc(F)c(O)c(Cl)c4)cc23)CC1` (stereo not drawn) [Example 467], the half-inhibitory concentration (IC50) in assay [1] came to 13 µM; in assay [2], 0.011 µM; in assay [3], 1.2 µM; in assay [4] it was 1.5 µM; in assay [5], 35 µM.

As to `COc1cc(-c2ccc3ncc(C(=O)C4CC4)c(-c4ccc(N5CCN(C)CC5)cc4)c3c2)cc(Cl)c1O` [Example 438, (6-(3-chloro-4-hydroxy-5-methoxyphenyl)-4-(4-(4-methylpiperazin-1-yl)phenyl)quinolin-3-yl)(cyclopropyl)methanone], the IC50 in assay [1] worked out at 0.25 µM; in assay [2] (setting [6]), 0.018 µM; in assay [3], 0.49 µM; in assay [4], 0.39 µM; in assay [5], 6.5 µM.

Take `CCOc1cc(-c2ccc3ncc(C(C)=O)c(N[C@H]4CC[C@H](N)CC4)c3c2)cc(Cl)c1O` [Example 486]: the concentration for half-maximal inhibition (IC50) in assay [1] is 0.11 µM; in assay [2], 0.0021 µM; in assay [3] it was 0.13 µM; in assay [4], 0.15 µM; in assay [5], 2.2 µM.

`NCc1ccc(Nc2c(C(=O)C3CC3)cnc3ccc(-c4cc(Cl)c(O)c(Cl)c4)cc23)cc1` [Example 507, {4-[4-(Aminomethyl)phenylamino]-6-(3,5-dichloro-4-hydroxyphenyl)quinolin-3-yl}(cyclopropyl)methanone]: the IC50 in assay [1] came to 0.059 µM; in assay [2], 0.0038 µM; in assay [3], 0.018 µM; in assay [4], 0.094 µM; in assay [5], 0.58 µM.

Consider `CN1CCN(Cc2ccc(Nc3c(C(=O)C4CC4)cnc4ccc(-c5cc(Cl)c(O)c(Cl)c5)cc34)cc2)CC1` [Example 397, Cyclopropyl{6-(3,5-dichloro-4-hydroxyphenyl)-4-[4-((4-methylpiperazin-1-yl)methyl)phenylamino]quinolin-3-yl}methanone], for which the 50% inhibitory concentration (IC50) came out at 0.15 µM in assay [1]; 0.0076 µM in assay [2] (setting [6]); 0.088 µM in assay [3]; 0.33 µM in assay [4]; 5.2 µM in assay [5].

In the case of `CN(C)C[C@H]1CC[C@H](Nc2c(S(C)(=O)=O)cnc3ccc(-c4cc(F)c(O)c(Cl)c4)cc23)CC1` [Example 423], the IC50 is 0.93 µM in assay [1]; 0.0063 µM in assay [2] (setting [6]); 0.31 µM in assay [3]; 0.42 µM in assay [4]; 2.4 µM in assay [5].

As for `COc1cc(-c2ccc3ncc(C(=O)C4CC4)c(Nc4ccc(N5CCN(C)CC5)nc4)c3c2)cc(Cl)c1O` [Example 470], the IC50 in assay [1] turned out to be 0.56 µM; in assay [2], 0.015 µM; in assay [3], 0.68 µM; in assay [4], 0.26 µM; in assay [5], 2.2 µM.

For `COc1cc(-c2ccc3ncc(C(=O)C4CC4)c(Nc4ccc(CN5CCOCC5)cc4)c3c2)cc(Cl)c1O` [Example 462], the IC50 in assay [1] stood at 0.7 µM; in assay [2] (setting [6]), 0.066 µM; in assay [3] it was 1.1 µM; in assay [4], 0.44 µM; in assay [5] it was 6 µM.

On to `COc1cc(-c2ccc3ncc(C(C)=O)c(N[C@H]4CC[C@H](CN(C)C)CC4)c3c2)cc(Cl)c1O` [Example 392], for which the IC50 in assay [1] is 0.27 µM; in assay [2] (setting [6]), 0.0034 µM; in assay [3] it was 0.44 µM; in assay [4] it was 0.25 µM; in assay [5], 10 µM.

Regarding `COc1cc(-c2ccc3ncc(C(=O)C4CC4)c(N4CCN(C(=O)CN(C)C)CC4)c3c2)cc(Cl)c1O` [Example 437, 1-(4-(6-(3-chloro-4-hydroxy-5-methoxyphenyl)-3-(cyclopropanecarbonyl)quinolin-4-yl)piperazin-1-yl)-2-(dimethylamino)ethanone], the concentration for half-maximal inhibition (IC50) in assay [1] was found to be 0.19 µM; in assay [2] (setting [6]) it was 0.0011 µM; in assay [3], 0.22 µM; in assay [4], 0.28 µM; in assay [5], 1.7 µM.

Consider `COc1cc(-c2ccc3ncc([S+](C)[O-])c(N4CCC(CN(C)C)CC4)c3c2)cc(Cl)c1O` (stereo not drawn) [Example 468], for which the IC50 stood at 1.4 µM in assay [1]; 0.0051 µM in assay [2]; 0.93 µM in assay [3]; 0.93 µM in assay [4]; 9.2 µM in assay [5].

Take `O=C(c1cnc2ccc(-c3cc(Cl)c(O)c(Cl)c3)cc2c1Nc1cnc(N2CCNCC2)nc1)C1CC1` [Example 497, cyclopropyl(6-(3,5-dichloro-4-hydroxyphenyl)-4-((2-(piperazin-1-yl)pyrimidin-5-yl)amino)quinolin-3-yl)methanone]: the IC50 in assay [1] came to 0.12 µM; in assay [2] it was 0.0021 µM; in assay [3], 0.056 µM; in assay [4], 0.052 µM; in assay [5] it was 0.97 µM.

For the molecule `CN(C)CC(=O)N1CC2CC1CN2c1c(C(=O)C2CC2)cnc2ccc(-c3ccc(O)c(Cl)c3)cc12` (stereo not drawn) [Example 464], the IC50 in assay [1] was 5.5 µM; in assay [2] (setting [6]) it was 0.051 µM; in assay [3] it was 3.4 µM; in assay [4] it was 6.6 µM; in assay [5] it was 17 µM.
